Results on 4 compounds are retold here after patent US6509362B2, “N-phenylamide and N-pyridylamide derivatives, method of preparing them and pharmaceutical compositions containing them” (Merck Patent Gesellschaft mit Beschraenkter Haftung, priority 1997, dated 2003).

Data set [1] deals with male Wistar rat fed a 2.5% cholesterol enriched diet. Nature of the data set: Test C: hypercholesterolemia model, cholesterol-fed rat. The data set is classed as in vivo. The note with it: dose 0.78 mg/kg, oral. The procedure:
(§1) Test C: hypercholesterolemia model; claim 1 compounds were tested by oral route in animals subjected to a cholesterol-rich diet;

The subject of the next data set is hepatic ACAT. The experiment in a line: Test A: in vitro hepatic ACAT inhibition in rat liver microsomes. Format: biochemical, rat (male Wistar). The conditions noted are these: 14C-oleyl coenzyme A, read-out: IC50 (concentration of compound inhibiting the ACAT activity by 50%). The protocol:
Test A: measurement of in vitro hepatic ACAT inhibition in rats: male Wistar rats weighing 220-250 g were sacrificed by cervical dislocation; the liver was removed and homogenised to prepare the microsomal fraction by ultracentrifugation; these microsomes were incubated with ^14C-oleyl coenzyme A according to the method described by P. J. GILLIES et al., Exp. and Mol. Pathol. 1986, 44, 329-339; lipids were extracted from the incubate with a methanol-chloroforme mixture and ^14C-oleyl cholesterol was separated by TLC; the latter represented the measurement of the ACAT activity and the results were expressed in inhibitory concentration 50 (IC50) representing the concentration of compound inhibiting the ACAT activity by 50%.

In data set [2] the test system is rabbit fed a 0.5% cholesterol enriched diet. Nature of the data set: Test C: hypercholesterolemia model, cholesterol-fed rabbit. The data set is classed as in vivo. The note with it: dose 0.1 mg/kg, oral. The protocol:
as §1

Data set [3] concerns intestinal absorption of cholesterol. Nature of the data set: Test B: intestinal absorption of cholesterol in rats. The note with it: Rattus norvegicus; per os, rats fasted 24 h, triton WR 1339 IV, 3H-cholesterol in serum; read-out: ED50 (quantity of compound inhibiting the intestinal absorption of cholesterol by 50%). Format: in vivo, rat (male Wistar). The procedure: Test B: measurement of intestinal absorption of cholesterol in rats; […]; one hour later, […]; three hours later, 1 ml of blood was taken from the retro-orbital sinus: the blood radioactivity determined on 0.1 ml of serum represented the measurement of the absorption of ^3H-cholesterol. The results were expressed in effective dose 50 (ED50) in mg per kg of animal and represented the quantity of compound inhibiting the intestinal absorption of cholesterol by 50%.

SMILES strings stand for the structures.

What is called ED50 is the dose that gives a 50% effect, or the effect in half of the subjects. In the case of `CSc1cc(C)nc(SC)c1NC(=O)CC1=C(c2ccccc2)c2ccccc2OC1` [Example 1, N-[2,4-Dimethylthio-6-methyl-3-pyridyl]-2-(4-phenyl-2H-3-benzo[b]pyranyl)acetamide], in data set [1] (2.5% cholesterol diet for 8 days, treated for 2 days), the total cholesterol lowered is on record as 50%. The “lipoprotein fraction on which the effect was observed” value in data set [1] (cholesterol-fed rat) and in data set [2] (cholesterol-fed rabbit) was “mainly observed on VLDL” in each case. For the same compound, in the data set on hepatic ACAT, the IC50 worked out at 94 nM. The compound also registered a total cholesterol decreased in data set [2] (0.5% cholesterol diet for 15 days, treated simultaneously) of 70%. Further, the ED50 in data set [3] is 0.005 mg/kg.
For orientation: melting point means the temperature, or range, at which the solid turns liquid. Regarding `CSc1cc(C)nc(SC)c1NC(=O)CC1=C(c2ccccc2)c2ccccc2CC1` [Example 4], the melting point was in the range of 218 to 220 °C. Moreover, in the data set with hepatic ACAT, the IC50 is 74 nM. Besides, in data set [3], the ED50 stood at 0.038 mg/kg.
In the same order, the values of `CSc1cc(C)nc(SC)c1NC(=O)CC1=C(c2ccc(F)cc2)c2ccccc2OC1` [Example 6] are 234 to 236 °C, 31 nM and 0.023 mg/kg.
`CSc1cc(C)nc(SC)c1NC(=O)CC=CC1=C(c2ccccc2)c2ccccc2OC1` [Example 17, N-[2,4-Dimethylthio-6-methyl-3-pyridyl]-4-(4-phenyl-2H-3-benzo[b]pyranyl)but-3-enamide]: the melting point fell in the range of 204 to 206 °C.
